The source of these data is patent publication US20250276065A1, “Electro Magnetic Transducer Network in the Enhancement of Anti-infective Strategies” (priority 2022, published 2025).

“Also recorded” adds a separate entry of the source.

Data set [1] has as its system S. epidermidis biofilms. In words: Eradication of pre-formed S. epidermidis biofilm by PEMF + antibiotic on plastic plates (Example 4, Phases 2 and 3). It counts as cell-based, Staphylococcus epidermidis. The note with it: for combined PEMF + antibiotic treatment compared to theoretical additive effect: all time points, plastic 6-well plates; for eradication of S. epidermidis biofilm by antibiotic alone: no PEMF. As for the experimental part: Staphylococcus epidermidis (S. epidermidis) ATCC 14990 was used for the biofilm experiments. The observed results were further confirmed by repeating said tests on S. epidermidis strain ATCC 35984. To test the above model the cells were first grown in Trypticase Soy Broth (TSB) (30 gl^−1 in purified water, autoclaved at 121° C. for 15 min; Becton, Dickinson and Company, Los Angeles, CA). The cells were incubated for 24 hours at 37° C. and then diluted 1:100 into TSB with glucose and plated. Five phases of experiments with this set-up have been successfully completed:
3) Evaluation of PEMFs ability to enhance the efficacy of antibiotic (specifically oxacillin and vancomycin) treatment against fully formed S. epidermidis biofilms on cell culture treated plastic plates.
For the biofilm inhibition experiments PEMF was applied to all experimental plates immediately after the cells were plated, with the […] being placed in a non-treated 37° C. incubator for the duration of treatment. Alternatively, for phases 2-4, cells were plated and then placed back in the non-treated 37° C. incubator for 24 hours (deemed adequate time for a biofilm to fully form through the literature and confirmed by preliminary experiments) before being exposed to PEMF.
In each phase, PEMF exposure was delivered for the following intervals: • 0 hours ([…] group, in 37° C. incubator for entirety of experiment) • 4 hours×2 cycles (exposed to PEMF hours 1-4, placed in 37° C. incubator hours 5-8, exposed to PEMF hours 9-12) • 12 hours continuously • 24 hours continuously
It is important to note that for all phase 3 trials, all PEMF exposure groups were tested as listed and compared to identical PEMF exposure times plus antibiotic. In phase 5 trials, PEMF exposure was delivered for alternate intervals of 0 hours, 3 hours, 6 hours, and 12 hours. This decision was due to the increased biofilm eradication ability of PEMF when combined with magnetic fNPs. As greater eradication was observed, it was deemed relevant to test shorter PEMF exposure intervals that are more applicable in the clinical setting.
At the conclusion of said experiments, crystal violet and alamarBlue assays were used to quantify the remaining viable biofilm in each well, and CFU/ml counts were used to quantify the planktonic (free-living) S. epidermidis cells.
The calculation performed to determine the theoretical additive effect of PEMF+antibiotic treatment and compare to the empirical effect of simultaneous PEMF and antibiotic treatment was a simple probability calculation: P(A)+(1−P(A))*P(B).

Data set [2] relates to Staphylococcus epidermidis (SE) biofilm. In words: Biofilm eradication by PEMF and Con-A t-MNPs (Example 3, preliminary data). Format: cell-based. The note with it: PEMF + Con-A t-MNPs + antibiotic (FIG. 9). As for the experimental part: Using Staphylococcus epidermidis (SE), the biofilm eradication increased over 80% when PEMF was administered at a frequency of 50 kHz and a magnetic field amplitude of 1.2 mT along with t-MNPs functionalized with Concanavalin-A (Con-A) that target components of the bacterial membrane, cell wall, and extracellular matrix.

Data set [3] deals with S. epidermidis biofilms. Description: Crystal violet assay of total biomass of pre-formed S. epidermidis biofilms, PEMF with or without antibiotic (Example 1). The following applies: for eradication of S. epidermidis biofilm by antibiotic alone: antibiotic alone at MIC, no PEMF, CV and alamarBlue (FIG. 2, FIG. 3); for combined PEMF + antibiotic treatment compared to theoretical additive effect: antibiotic at MIC, all PEMF time points, p<0.001. It counts as cell-based, Staphylococcus epidermidis. As for the experimental part: Experiments were performed initially on S. epidermidis strain ATCC 14990 and further tested on S. epidermidis strain ATCC 35984, which is known to be a particularly strong biofilm former (Okajima, Y. et al., 2006, Invest Ophthalmol Vis Sci, 47(7):2971-2975). Trypticase soy broth (TSB) (30 g l^−1 in water, autoclaved at 121° C. for 15 minutes; BD Bacto TSB from Fisher Scientific) was used for in vitro growth of bacterial cell cultures, and 50% glucose was added to the medium at a final concentration of 0.25%. Sterile Falcon 6-well, clear, flat-bottom, tissue culture-treated, cell culture plates (Corning; Lot #1059012) and sterile CELLSTAR cell culture 24-well, PS, clear, tissue culture-treated plates (Greiner; Lot #E100501A) were used for S. epidermidis cell plating and biofilm growth (6-well plates used for crystal violet assay experiments; 24-well plates used for alamarBlue assay experiments).
The PEMF apparatus was custom made in the laboratory and was previously described in Ghalayani Esfahani et al. 2019 (Esfahani, A. et al., 2019, J Appl Microbiol, 126(1):87-101). Briefly, the PEMF apparatus consisted of an acrylic shelved rack with wrap-around Helmholtz coils, a signal generator, and a power supply. […] A digital oscilloscope (TBS1000C, Tektronix, Beaverton, OR) was used to monitor the signal waveform. All plates not under PEMF treatment were kept in a 37° C. incubator, identical temperature to the PEMF incubator.
S. epidermidis biofilms were grown by initially incubating freezer stock S. epidermidis cell scrapings in TSB media at 37° C. for 24 hours with shaking. Subsequently, the cells were diluted 1:100 into TSB media containing 0.25% glucose and then aliquoted, in 3 ml or 1 ml aliquots, into 6-well or 24-well plates, respectively. To test the ability of PEMF to disrupt pre-formed biofilms, inoculated plates were incubated for 24 hours to allow biofilm formation to occur. Negative controls of only TSB media containing 0.25% glucose (i.e., no cells) were also included for all plates to ensure no contamination occurred.
Crystal Violet (CV) assay was utilized to quantify biofilm formation in vitro as previously described (Esfahani, A. et al., 2019, J Appl Microbiol, 126(1):87-101). After incubation of the biofilm in the plates with or without treatment, the media and any non-adhered cells were removed. The well of the plates were then washed with Wash Buffer three times to ensure only biofilm-adhered cells remained. Next, wells were incubated with CV at room temperature for 15 minutes. The CV stain was then removed, and wells were washed twice with water. An 80% ethanol/20% acetone solution was then added and allowed to incubate for 20 minutes at room temperature to solubilize the dye. Absorbance readings were thereafter obtained at 570 nm and recorded for each well (BMG LABTECH, FLUOstar Omega plate reader).
To test possible synergism between PEMF exposure and antibiotic treatment, the MIC of both oxacillin and vancomycin for the specific S. epidermidis strain used was determined. S. epidermidis were first incubated in TSB media at 37° C. for 24 hours with shaking. […] After 24 hours, OD600 readings of the wells were taken. The MIC of each antibiotic was determined to be the lowest concentration to show inhibition of planktonic S. epidermidis cell growth.
To confirm the reproducibility of results, all experiments were run identically at least three times with similar outcomes before results were analyzed and reported. […]
A general note: Alamar Blue is a resazurin reagent that responds to reducing activity.

The test system of data set [4] is Staph epidermidis biofilm. Description: AlamarBlue biofilm eradication with fNPs or NPs, PEMF and vancomycin (Example 2, Phase I). It counts as cell-based, Staphylococcus epidermidis. As to the method: A series of experiments were conducted on Staphylococcus epidermidis and aureus. Staph epidermidis cells were grown, diluted, and aliquoted onto cell culture plates. Biofilm was formed by letting the bacteria grow for 48 hrs. in the tissue culture wells. Planktonic cell growth was measured using serial dilutions and subsequently determining CFU/mL counts. Biofilm assay was performed through AlamarBlue cell viability reagent and obtaining fluorescence readings at 544/590 excitation/emission (ex/em). Magnetic nanoparticles functionalized with a lectin, Concanavalin-A, were purchase from Sigma Aldrich. Vancomycin was used as an antibiotic.
Biofilm-containing plates were exposed to different conditions and specifically: • 1) No treatment • 2) Vancomycin alone • 3) PEMF alone • 4) PEMF+Vancomycin • 5) fNPs only (5 different fNPs concentration) • 6) PEMF+fNPs (5 different fNPs concentration) • 7) PEMF+fNPs+Vancomycin (5 different fNPs concentration) • 8) NPs only (5 different fNPs concentration) • 9) PEMF+NPs (5 different fNPs concentration)
The NPs in the functionalized and non-functionalized groups had the same composition and size distribution. PEMF exposure was delivered at 37° C. and various periods: 0 hrs, 6 hrs, and 12 hrs.

The subject of a further data set is mammalian cells. The note with it: cited from earlier work.
The test system of a further data set is Staphylococcal membranes. The note with it: within 60 minutes of exposure; cited from earlier work.
The conditions of data set [5]: up to 20 times its minimum bactericidal concentration; cited from earlier work.
Data set [6] relates to S. aureus (both methicillin- and vancomycin-resistant), S. epidermidis, and P. aeruginosa. The following applies: cited from earlier work.

Take `Cc1onc(-c2ccccc2)c1C(=O)N[C@@H]1C(=O)N2[C@@H]1SC(C)(C)[C@@H]2C(=O)O` [oxacillin]: the “combined PEMF + antibiotic treatment compared to theoretical additive effect” value in the data set with S. epidermidis biofilms [1] is on record as “significantly synergistic; also recorded: significant empirical synergism”; in the data set on S. epidermidis biofilms [3], “synergistically enhanced; also recorded: significantly synergistic”. For the same compound, the “eradication of S. epidermidis biofilm by antibiotic alone” value (from here on “eradication of S. epidermidis biofilm”) in the data set with S. epidermidis biofilms [1] is “Neither oxacillin nor vancomycin alone significantly eradicated”; with S. epidermidis biofilms [3], “Neither oxacillin nor vancomycin (FIG. 2, FIG. 3) alone significantly eradicated”. Also, in data set [2], the “change in percentage of eradication when antibiotic was added to the nanoparticles” value is given as “only slightly increased”. For the same compound, the “reduction of total biomass, quantified by CV assay” value in the data set on S. epidermidis biofilms [3] (PEMF 24-hour exposure + antibiotic at MIC simultaneously, pre-formed biofilm, vs 48-hour control group, mean) is on record as 74%.

For the compound `CN[C@H](CC(C)C)C(=O)N[C@H]1C(=O)N[C@@H](CC(N)=O)C(=O)N[C@H]2C(=O)N[C@H]3C(=O)N[C@H](C(=O)N[C@H](C(=O)O)c4cc(O)cc(O)c4-c4cc3ccc4O)[C@H](O)c3ccc(c(Cl)c3)Oc3cc2cc(c3O[C@@H]2O[C@H](CO)[C@@H](O)[C@H](O)[C@H]2O[C@H]2C[C@](C)(N)[C@H](O)[C@H](C)O2)Oc2ccc(cc2Cl)[C@H]1O` [vancomycin], in the data set with S. epidermidis biofilms [1], the “combined PEMF + antibiotic treatment compared to theoretical additive effect” value is “significantly synergistic” and the “eradication of S. epidermidis biofilm” value is “Neither oxacillin nor vancomycin alone significantly eradicated”. Besides, the “change in percentage of eradication when antibiotic was added to the nanoparticles” value in data set [2] was “only slightly increased”. In addition, the “effect on eradication of adding Vancomycin to fNPs + PEMF” value in data set [4] (PEMF + fNPs + Vancomycin) is listed as “does not increase much the eradication”. In addition, in data set [4] (antibiotic used alone), the “increase in biofilm eradication” value is listed as 5%. Moreover, in the data set with S. epidermidis biofilms [3], the “eradication of S. epidermidis biofilm” value is “Neither oxacillin nor vancomycin (FIG. 2, FIG. 3) alone significantly eradicated” and the “combined PEMF + antibiotic treatment compared to theoretical additive effect” value is listed as “synergistically enhanced; also recorded: significantly synergistic”.

“LL-37: human cathelicidin antimicrobial peptide; N-terminal-cysteine form CLLGDFFRKSKEKIGKEFKRIVQRIKDFLRNLVPRTES (SEQ ID NO: 1) (N-terminal cysteine)”: in the data set on mammalian cells, the “toxicity to mammalian cells” value is reported as “non-toxic”.

As for “WR12: de novo designed synthetic antimicrobial peptide; N-terminal-cysteine form CRWWRWWRRWWRR (SEQ ID NO: 2) (N-terminal cysteine)”, the “leakage of preloaded intracellular calcein dye” value in the data set on Staphylococcal membranes is on record as “greater than 95%”. For the same compound, in data set [5], the cytotoxicity levels entry was “negligible”. Also, in data set [6], the antibacterial activity entry is given as “potent antibacterial activity”.
